# Test results from patent US6057371A, “Sigma receptor ligands and the use thereof” (Virginia Commonwealth University, priority 1992, dated 2000).
# Where “and” joins values, the source holds several entries; their conditions need not be identical. Identical values can stand only once. Like-named read-outs stand apart in the source and are kept apart here.
# Legend:
# PCP receptor = PCP receptor binding, ^3 H-MK-801; set-up: species or system rat; details: Table 4
# Protocol: PCP receptor binding assays against ^3 H-MK-801 were conducted as described by Keana et al., Proc. Natl. Acad. Sci (USA) 86: 5631-5635 (1989); Keana et al., Life Sciences 43: 965-973 (1988). For (+) ^3 H-MK-801 binding, 1 nM of radioligand was incubated with about 100 ug of thawed rat brain membrane protein for 4 hr at room temperature. The assays were carried out in 5 mM Tris/acetate and were stopped by rapid filtration through Whatman GF/B or Schleicher & Schuell no. 32 glass fiber filters (presoaked in 0.05% polyethylenamine).
# Dopamine D1 receptor = molecular target: T1, Dopamine D1 receptor (Rattus norvegicus, UniProt P18901); assay: Dopamine D1 receptor binding, [^3 H]SCH-23390, striatal membranes; details: Table 4
# T1 construct: Rat striatal membranes were prepared from frozen tissue; from tissue; host or cells: rat striatum, frozen tissue
# T1 sequence (P18901 whole entry): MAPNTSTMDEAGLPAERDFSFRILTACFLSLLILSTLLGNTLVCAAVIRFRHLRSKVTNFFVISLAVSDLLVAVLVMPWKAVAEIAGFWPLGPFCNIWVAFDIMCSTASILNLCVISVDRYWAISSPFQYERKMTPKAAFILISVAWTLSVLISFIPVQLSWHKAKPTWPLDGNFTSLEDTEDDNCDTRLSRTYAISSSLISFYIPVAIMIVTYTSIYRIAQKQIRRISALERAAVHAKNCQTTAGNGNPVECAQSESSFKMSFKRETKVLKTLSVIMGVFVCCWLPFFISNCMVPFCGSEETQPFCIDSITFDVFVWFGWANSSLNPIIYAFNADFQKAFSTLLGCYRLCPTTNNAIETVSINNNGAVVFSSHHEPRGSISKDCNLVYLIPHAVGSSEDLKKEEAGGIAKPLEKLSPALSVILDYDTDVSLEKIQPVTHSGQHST
# Protocol: (§1) Dopamine D1 and D2 receptor binding assays were performed as described by Billard et al., Life Sci. 35: 1885-1893 (1984) using [^3 H]SCH-23390 for the D1 receptors and [^3 H]domperidone for the D2 receptors (Baudry et al., Arch. Pharmacol. 308: 231-237 (1979).
# (§2) Rat striatal membranes were prepared from frozen tissue by Poltron homogenization in 25 volumes of ice cold Tris-EDTA buffer (50 mM Tris-HCl, 1 mM EDTA, pH 7.4 at 4° C.). The homogenate was centrifuged at 48,000× g for 10 min. at 4° C., and the pellet was resuspended in 25 volumes of the same buffer. This suspension was then incubated at 37° C. for 15 min., followed by recentrifugation as before. The resulting pellet was resuspended in 267 volumes of assay buffer (50 mM Tris-HCl, 120 mM NaCl, 5 mM KCl, 2 mM CaCl2, 1 mM MgCl2, pH 7.4 at 37° C.).
# (§3) The binding assays were conducted with 100 uL of [^3 H]SCH-23390 or [^3 H]domperidone (to give about 1 nM final), 100 uL of buffer or drug solution, and 800 uL of membrane suspension (to give about 250 ug of striatal membrane protein per assay). The tubes were incubated at 37° C. for 60 min. The assays were stopped by rapid filtration over Schleicher & Schuell #32 or Whatman GF/B glass fiber filters (presoaked in 0.5% polyethyleneimine for [^3 H]domperidone binding), followed by two 3 mL washes of ice cold buffer using a Brandel cell harvester. After vigorous shaking, the filter disks were counted at 52% efficiency in 5 mL of Cytoscint (ICN).
# 5-HT1A receptor = molecular target: T2, 5-HT1A receptor (Rattus norvegicus, UniProt P19327); assay: biochemical; type: binding; set-up: 47: 529-540 (1986); from tissue; host or cells: brain tissue, inferred from the cited method (rat frontal cortex)
# T2 sequence (P19327 1-422): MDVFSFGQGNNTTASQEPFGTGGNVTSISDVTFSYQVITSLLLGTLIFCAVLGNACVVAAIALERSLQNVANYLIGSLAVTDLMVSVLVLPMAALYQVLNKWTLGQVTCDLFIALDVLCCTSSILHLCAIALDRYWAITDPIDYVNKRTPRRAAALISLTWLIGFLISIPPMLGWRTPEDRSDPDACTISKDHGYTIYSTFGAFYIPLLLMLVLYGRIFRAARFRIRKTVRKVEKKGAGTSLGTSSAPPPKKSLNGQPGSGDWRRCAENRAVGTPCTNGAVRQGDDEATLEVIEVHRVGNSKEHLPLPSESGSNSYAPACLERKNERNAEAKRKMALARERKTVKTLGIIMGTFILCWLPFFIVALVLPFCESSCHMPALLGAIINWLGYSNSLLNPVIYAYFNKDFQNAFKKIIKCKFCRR
# Protocol: Further sigma receptor binding assays against [^3 H]DTG and 5HT-1A binding assays were conducted according to the procedure outlined in the previous examples.
# sigma-1 binding site = molecular target: T3, sigma-1 binding site (Cavia porcellus, UniProt Q60492); assay: biochemical; set-up: species or system guinea pig
# T3 construct: Guinea pig whole membrane preparations (P2 microsomal fraction); from tissue; host or cells: guinea pig membranes (P2 microsomal fraction), as described by Weber et al; brain inferred from the sister test b489
# T3 sequence (Q60492 whole entry): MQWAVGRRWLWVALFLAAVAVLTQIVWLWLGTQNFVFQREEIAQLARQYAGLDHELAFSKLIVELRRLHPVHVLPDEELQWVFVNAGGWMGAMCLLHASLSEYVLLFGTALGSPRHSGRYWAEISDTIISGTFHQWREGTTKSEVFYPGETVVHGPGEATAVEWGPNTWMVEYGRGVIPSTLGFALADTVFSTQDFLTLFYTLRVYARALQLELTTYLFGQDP
# Protocol: [^3 H]DTG was purchased from DuPont/NEN.
# The radioactivity on the filters was determined by scintillation spectrometry at an efficiency of about 50% using Cytoscint (ICN) scintillation fluid.
# sigma-2 binding site [1] = molecular target: T4, sigma-2 binding site (Cavia porcellus, UniProt H0V073); assay: biochemical; set-up: species or system guinea pig; details: for IC50: Table 17, read-out: IC50 (nM) at sigma-2
# T4 construct: Guinea pig whole membrane preparations (P2 microsomal fraction); from tissue; host or cells: guinea pig membranes (P2 microsomal fraction), as described by Weber et al; brain inferred from the sister test b489
# T4 sequence (H0V073 1-176): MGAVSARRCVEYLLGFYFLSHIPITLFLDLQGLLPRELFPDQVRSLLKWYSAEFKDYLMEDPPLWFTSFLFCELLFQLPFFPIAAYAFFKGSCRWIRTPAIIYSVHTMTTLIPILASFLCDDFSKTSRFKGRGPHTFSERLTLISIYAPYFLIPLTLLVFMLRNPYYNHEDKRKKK
# Protocol: (§4) For the standard equilibrium assay, the mixtures were incubated for 30 min. at room temperature, then filtered and the radioactivity determined as described above.
# sigma sites = details: cited, cited from earlier work; for affinity for sigma-1 site compared to sigma-2 site: Hellewell and Bowen
# [2] = cited, Glennon 1984; cited from earlier work
# Dopamine D2 receptor = molecular target: T5, Dopamine D2 receptor (Rattus norvegicus, UniProt P61169); assay: Dopamine D2 receptor binding, [^3 H]domperidone, striatal membranes; details: Table 4
# T5 construct: Rat striatal membranes were prepared from frozen tissue; from tissue; host or cells: rat striatum, frozen tissue
# T5 sequence (P61169 whole entry): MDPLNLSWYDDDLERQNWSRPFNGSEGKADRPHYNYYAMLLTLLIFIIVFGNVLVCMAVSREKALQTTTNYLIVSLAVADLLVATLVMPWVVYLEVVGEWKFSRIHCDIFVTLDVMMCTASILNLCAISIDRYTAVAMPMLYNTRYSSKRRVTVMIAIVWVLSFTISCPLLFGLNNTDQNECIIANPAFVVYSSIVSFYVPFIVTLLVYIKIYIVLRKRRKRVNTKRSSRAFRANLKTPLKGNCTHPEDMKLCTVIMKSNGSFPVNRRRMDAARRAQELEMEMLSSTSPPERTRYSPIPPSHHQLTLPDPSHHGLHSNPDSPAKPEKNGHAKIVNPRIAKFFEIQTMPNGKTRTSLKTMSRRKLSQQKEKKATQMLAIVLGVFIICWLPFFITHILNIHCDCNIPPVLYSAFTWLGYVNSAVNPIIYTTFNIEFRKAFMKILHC
# Protocol: as §1, §2, §3
# sigma receptor = assay: Sigma receptor binding, [^3 H]DTG, brain membranes (both sigma-1 and sigma-2 sites); set-up: species or system guinea pig; details: for IC50: Table 6, [^3 H]DTG
# sigma-2 binding site [3] = assay: biochemical; set-up: species or system guinea pig; details: for sigma-1/sigma-2 ratio: Example 9; for ratio of sigma-1/sigma-2 (sigma-2 selective compounds): greater than about 10, see Table 10
# Protocol: as §4
# [4] = Table 10, read-out: SIGMA-1 KI vs. 3H-PENTAZOCINE MEAN
# [5] = Table 10, read-out: SIGMA-2 KI vs. 3H-DTG + PENTAZOCINE MEAN
Structure (SMILES),IC50 (PCP receptor) [nM],IC50 (Dopamine D1 receptor) [nM],Ratio 5-HT1A /σ (5-HT1A receptor),"IC50 (5-HT1A receptor; Table 5, read-out: 5-HT1A IC50) [nM]",Ki (sigma-1 binding site; [4]) [nM],Ki (sigma-2 binding site [1]; [5]),other results
"CC(Cc1ccc(I)cc1)NCCCc1ccccc1 (racemic) [Compound 22, (±) N-[1-(4'-Iodophenyl)-2-propyl]-3-phenylpropylamine]",> 10000,> 10000,13,202,17.7,76 nM,"IC50 (sigma-1 binding site; Table 12, read-out: IC50 (nM) at sigma-1): 17.7 nM; S1/S2 Ratio (sigma-1 binding site; guinea pig, microsomes): 0.232; IC50 (sigma-2 binding site [1]): 76 nM"
"CC(C)=CCN1CCC2(C)c3cc(O)ccc3CC1C2C (single isomer, unassigned; (+)) [(+)Pentazocine]",–,–,–,–,–,–,affinity for sigma-1 site compared to sigma-2 site (sigma sites): nearly two orders of magnitude higher affinity for the sigma-1 site compared to the sigma-2 site
NC1CCc2ccccc2C1 (stereo not drawn) [2-aminotetralin],–,–,–,–,–,–,effectiveness vs. racemic amphetamine [2]: about one-half as effective as racemic amphetamine
"C=CCN1CC[C@]2(C)c3cc(O)ccc3C[C@H]1[C@H]2C [(+)SKF 10047, reference compound]",–,–,–,–,–,–,affinity for sigma-1 site compared to sigma-2 site (sigma sites): nearly two orders of magnitude higher affinity for the sigma-1 site compared to the sigma-2 site; Ki (sigma-2 binding site [1]; SIGMA-2 KI vs. 3H-DTG + PENTAZOCINE MEAN): 16200 nM
"C[C@H](Cc1ccccc1)NCCCc1ccccc1 [Compound 1, R(-)N-(1-phenyl-2-propyl)-3-phenylpropylamine]",> 10000,> 10000,–,115,–,60.8 nM,"IC50 (Dopamine D2 receptor): 4650 ± 430 nM; Ki (sigma-2 binding site [1]; Example 9, read-out: sigma-2 binding affinity): 60 nM; IC50 (sigma-2 binding site [1]): 60 nM"
"c1ccc(CCCNCCCc2ccccc2)cc1 [Compound 15, Di-(3-phenylpropyl)-amine]",> 10000,> 10000,–,30.7,11.4,63.9 nM,"Ratio 5-HT1A /σ (5-HT1A receptor; Table 5): 2; Ki (sigma receptor; Table 7, Phenyl-(CH2)x -NH--(CH2)y -Phenyl, read-out: Ki): 14 nM; IC50 (Dopamine D2 receptor): 1680 ± 3600 nM; S1/S2 Ratio (sigma-1 binding site; Table 10, sigma-1/sigma-2): .178"
COc1ccc(CC(C)NCCCc2ccccc2)cc1 (stereo not drawn) [Compound 19],> 10000,> 10000,7.6,114,–,–,–
"OC1(c2ccccc2)CCN(CCCc2ccccc2)CC1 [Compound 40, 4-Hydroxy-4-phenyl-1-(3-phenylpropyl)piperidine]",> 10000,> 10000,970,2960,0.68,9.2 nM and 7.03 nM,"IC50 ratio of sigma-1/sigma-2 (sigma-1 selective compounds) (sigma-1 binding site): less than 0.1; S1/S2 Ratio (sigma-1 binding site; guinea pig, microsomes): 0.074 and 0.096"
c1ccc(CCNCCCc2ccc3ccccc3c2)cc1 [Compound 41],> 10000,> 10000,–,34.7,–,–,Ratio 5-HT1A /σ (5-HT1A receptor; Table 5): 7.6; IC50 (Dopamine D2 receptor): 1920 ± 190 nM
"C[C@@H](Cc1ccccc1)NCCCCc1ccccc1 [Compound 44, N-(4-phenylbutyl)-1-phenyl-2-propylamine]",> 10000,–,40,–,–,–,"IC50 (5-HT1A receptor): 278 nM; Ki (sigma-1 binding site; SIGMA-1 KI vs. 3H-P[…]): 19.4 nM; S1/S2 Ratio (sigma-1 binding site; guinea pig, microsomes): .543; Ki (sigma-2 binding site [1]; SIGMA-2 KI vs. 3H-DTG + P[…]): 35.8 nM"
"C[C@@H](Cc1ccccc1)NCCCCCc1ccccc1 [Compound 45, N-(5-phenylpentyl)-1-phenyl-2-propylamine]",> 10000,–,100,–,–,–,"IC50 (5-HT1A receptor): 594 nM; IC50 (sigma-1 binding site): 0.88 nM; change in sigma-1 affinity vs. compound No. 1, words (sigma-1 binding site): substantially increases affinity; Ki (sigma-1 binding site; SIGMA-1 KI vs. 3H-P[…]): 0.88 nM; S1/S2 Ratio (sigma-1 binding site; guinea pig, microsomes): .048; Ki (sigma-2 binding site [1]; SIGMA-2 KI vs. 3H-DTG + P[…]): 18.5 nM"
c1ccc(CCCNC2CCc3ccccc3CC2)cc1 [Compound 49],> 10000,> 10000,30,313,–,–,–
c1ccc(N2CCN(CCCc3ccc4ccccc4c3)CC2)cc1 [Compound 51],> 10000,2990 ± 40,–,–,–,–,IC50 (Dopamine D2 receptor): 158 ± 28 nM
"O=C1c2ccccc2C(=O)N1CCCN1CCN(c2ccccc2)CC1 [Compound 96, N-phenyl-N'-(3-(1-phthalimido)propyl)piperazine]",–,–,–,–,3100,149 nM,IC50 (sigma receptor): 141 nM; sigma-1/sigma-2 ratio (sigma-2 binding site [3]): 87; ratio of sigma-1/sigma-2 (sigma-2 selective compounds) (sigma-2 binding site [3]): greater than 10
O=C1c2ccccc2C(=O)N1CCCCN1CCN(c2ccccc2)CC1 [Compound 97],–,–,–,–,195,20.4 nM,"IC50 (sigma receptor): 20.3 nM; S1/S2 Ratio (sigma-1 binding site; Table 10, sigma-1/sigma-2): 9.587; sigma-1/sigma-2 ratio (sigma-2 binding site [3]): 10; ratio of sigma-1/sigma-2 (sigma-2 selective compounds) (sigma-2 binding site [3]): greater than 10"
"COc1ccccc1N1CCN(CCCCN2C(=O)c3ccccc3C2=O)CC1 [Compound 120, N-(4-(1-phthalimido)butyl)-N'-(o-methoxyphenyl)piperazine]",–,–,–,–,512,76.6 nM,"IC50 (sigma receptor): 64.7 nM; S1/S2 Ratio (sigma-1 binding site; Table 10, sigma-1/sigma-2): 6.683; sigma-1/sigma-2 ratio (sigma-2 binding site [3]): 7"
O=C(CCCN1CCC(O)(c2ccc(Cl)cc2)CC1)c1ccc(F)cc1 [Haloperidol],–,–,–,–,–,–,affinity for sigma sites vs. N-allyl normetrazocine (NANM) (sigma sites; Tam 1984): approximately 100 fold
